# Measured values: ChEMBL document CHEMBL1201862, “PubChem BioAssay data set” (2004)
# Activity calls are given as the source filed them.
# Tests used:
# Bcl-2-like protein 10 = molecular target: T1, Bcl-2-like protein 10 (Homo sapiens, UniProt Q9HD36); assay: displacers of TR3 peptide from Bcl-B, primary screen, selectivity assay for Bfl-1 inhibitor project, biochemical, fluorescence polarization, FITC-TR3 peptide (AID 748);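 note: fluorescence polarization from a fluorescein-labelled TR3 peptide binding purified Bcl-B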
# T1 sequence (Q9HD36 whole entry): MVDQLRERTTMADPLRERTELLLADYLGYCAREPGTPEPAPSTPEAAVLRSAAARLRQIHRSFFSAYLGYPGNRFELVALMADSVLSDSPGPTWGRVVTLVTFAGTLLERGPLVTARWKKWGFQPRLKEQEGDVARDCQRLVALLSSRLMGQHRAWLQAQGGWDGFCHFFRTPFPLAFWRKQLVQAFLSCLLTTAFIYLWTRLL
# Cytochrome P450 3A4 [1] = molecular target: T2, Cytochrome P450 3A4 (Homo sapiens, UniProt P08684);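 note: CYP3A4 tested as one member of a cytochrome P450 panel screen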
# Troponin, cardiac muscle = Troponin, cardiac muscle (Homo sapiens, UniProt P19429+P45379+P63316); assay: Fluorescence-based biochemical high throughput dose response assay for activators of the calcium sensitivity of cardiac Regulated Thin Filaments (RTF). [Related pubchem assays (depositor defined):AID493008, AID493018, AID504382, AID504383]; format: protein-complex assay
# Aminopeptidase N = molecular target: T3, Aminopeptidase N (Plasmodium falciparum FcB1/Columbia, UniProt O96935); assay: P. falciparum M1AAP inhibitors, biochemical, fluorogenic H-Leu-NHMec substrate, 1536-well (AID 1445); parameters: species or system Plasmodium falciparum 3D7, 3D7
# T3 sequence (O96935 whole entry): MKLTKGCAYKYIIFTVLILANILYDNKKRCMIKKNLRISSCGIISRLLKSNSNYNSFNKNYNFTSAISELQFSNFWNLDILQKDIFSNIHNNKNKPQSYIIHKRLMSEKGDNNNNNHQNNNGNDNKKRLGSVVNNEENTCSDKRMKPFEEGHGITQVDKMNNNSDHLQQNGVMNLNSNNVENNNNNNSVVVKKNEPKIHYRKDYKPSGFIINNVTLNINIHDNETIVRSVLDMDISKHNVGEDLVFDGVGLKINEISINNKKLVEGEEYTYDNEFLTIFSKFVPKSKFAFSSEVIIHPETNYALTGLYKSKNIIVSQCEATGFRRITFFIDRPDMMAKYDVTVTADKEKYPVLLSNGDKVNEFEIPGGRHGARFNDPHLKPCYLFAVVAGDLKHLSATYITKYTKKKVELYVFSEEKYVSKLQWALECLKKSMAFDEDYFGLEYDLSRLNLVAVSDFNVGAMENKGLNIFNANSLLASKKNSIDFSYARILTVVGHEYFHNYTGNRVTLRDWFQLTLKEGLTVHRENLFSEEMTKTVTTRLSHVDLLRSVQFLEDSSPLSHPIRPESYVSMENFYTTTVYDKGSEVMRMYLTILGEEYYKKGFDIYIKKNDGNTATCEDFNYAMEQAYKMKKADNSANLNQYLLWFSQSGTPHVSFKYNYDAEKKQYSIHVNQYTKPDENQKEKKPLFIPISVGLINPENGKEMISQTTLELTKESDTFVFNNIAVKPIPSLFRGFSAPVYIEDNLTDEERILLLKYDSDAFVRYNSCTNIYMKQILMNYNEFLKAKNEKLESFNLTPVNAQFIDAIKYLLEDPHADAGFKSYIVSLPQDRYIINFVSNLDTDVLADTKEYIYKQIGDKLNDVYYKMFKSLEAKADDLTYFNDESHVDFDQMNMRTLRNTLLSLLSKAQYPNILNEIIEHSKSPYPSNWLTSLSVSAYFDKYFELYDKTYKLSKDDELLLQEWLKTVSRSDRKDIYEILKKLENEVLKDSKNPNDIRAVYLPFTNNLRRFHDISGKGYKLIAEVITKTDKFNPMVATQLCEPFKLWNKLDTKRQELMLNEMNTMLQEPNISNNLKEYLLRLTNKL
# [2] = inhibitors of intracellular T. cruzi replication, confirmation, NIH3T3 host cells, beta-gal luminescence (AID 2044); format: functional, cell-based;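 note: intracellular parasites grown in NIH/3T3 mouse fibroblasts as host cells; luminescent beta-galactosidase reporter signal from transgenic T. cruzi replicating inside host cells; inhibitors lower the luminescence signal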
# Cytochrome P450 3A4 [3] = molecular target: T2, Cytochrome P450 3A4; remark: listed apart in the source
# [4] = molecular target: Glucose-6-phosphate 1-dehydrogenase (Homo sapiens, UniProt P11413); assay: human G6PD enzyme inhibitors, dose response, selectivity assay for P. falciparum G6PD inhibitor project, biochemical, fluorescence (AID 504792); format: functional
# [5] = cytotoxicity toward NIH3T3 fibroblasts, dose response, counter-screen, cell-based, ATP luminescence, mouse fibroblasts (AID 2010); format: functional;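 note: cells exposed to compound for about 90 hours before reading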
# [6] = molecular target: Voltage-gated inwardly rectifying potassium channel KCNH2 (Homo sapiens, UniProt Q12809); details: Potency;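 note: confirmatory quantitative high-throughput screen measuring inhibition of hERG channel activity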
# [7] = Luminescence Cell-Based Dose Retest to Confirm Inhibitors of Cancer Stem Cells. [Related pubchem assays (depositor defined):AID2717, AID2721]; format: functional; details: Homo sapiens
# [8] = C. albicans growth with fluconazole, confirmation, fluorescence, retest (AID 2467); format: functional, cell-based
# [9] = NIH-3T3 fibroblast cytotoxicity, dose response, cytotoxicity control, cell-based, fluorescence, Alamar Blue, secondary assay (AID 2327); format: functional;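 note: NIH-3T3 mouse fibroblasts cultured with fluconazole at 8 µg/mL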
# SUMO-activating enzyme = SUMO-activating enzyme (Homo sapiens, UniProt Q9UBT2); assay: SUMOylation inhibitor hit validation, confirmation, SUMOylation inhibitor project, biochemical, AlphaScreen (AID 2018); format: functional
# [10] = molecular target: DNA dC->dU-editing enzyme APOBEC-3A (Homo sapiens, UniProt P31941); assay: Dose Response confirmation of small molecule APOBEC3A DNA Deaminase Inhibitors via a fluorescence-based single-stranded DNA deaminase assay. [Related pubchem assays (depositor defined):AID493011, AID493024]; format: functional
# [11] = molecular target: DNA dC->dU-editing enzyme APOBEC-3G (Homo sapiens, UniProt Q9HC16); format: functional;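 note: Dose-response counterscreen measuring inhibition of APOBEC3G DNA deaminase activity, run while confirming APOBEC3A inhibitors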
# [12] = molecular target: T4, Type-1 angiotensin II receptor (Homo sapiens, UniProt P30556); assay: AT1 receptor antagonists, dose response, selectivity assay for APJ receptor antagonist project, cell-based, uHTS hits (AID 463214); format: functional;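 note: antagonist potency against angiotensin II stimulated AT1 response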
# T4 sequence (P30556 whole entry): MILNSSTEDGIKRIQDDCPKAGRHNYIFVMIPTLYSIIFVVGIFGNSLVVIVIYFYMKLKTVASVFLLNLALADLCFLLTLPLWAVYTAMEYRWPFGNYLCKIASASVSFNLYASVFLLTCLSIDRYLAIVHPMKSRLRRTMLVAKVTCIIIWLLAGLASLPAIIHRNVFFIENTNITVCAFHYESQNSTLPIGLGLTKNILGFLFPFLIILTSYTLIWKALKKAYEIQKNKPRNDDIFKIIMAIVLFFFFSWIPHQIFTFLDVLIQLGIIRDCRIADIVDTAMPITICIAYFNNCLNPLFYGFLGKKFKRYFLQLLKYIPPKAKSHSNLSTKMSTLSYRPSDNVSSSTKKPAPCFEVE
# Beta-galactosidase [13] = molecular target: T5, Beta-galactosidase (Escherichia coli, UniProt Q8VNN2); assay: PubChem AID 485352; format: functional
# Beta-galactosidase [14] = molecular target: T5, Beta-galactosidase; assay: beta-galactosidase enzyme inhibitors and activators, dose response, artefact control for CCR6 antagonist project, biochemical, E. coli enzyme, set 3 (AID 504712); format: functional
# Protein skinhead-1 = molecular target: T6, Protein skinhead-1 (Caenorhabditis elegans, UniProt P34707); format: functional
# T6 sequence (P34707 whole entry): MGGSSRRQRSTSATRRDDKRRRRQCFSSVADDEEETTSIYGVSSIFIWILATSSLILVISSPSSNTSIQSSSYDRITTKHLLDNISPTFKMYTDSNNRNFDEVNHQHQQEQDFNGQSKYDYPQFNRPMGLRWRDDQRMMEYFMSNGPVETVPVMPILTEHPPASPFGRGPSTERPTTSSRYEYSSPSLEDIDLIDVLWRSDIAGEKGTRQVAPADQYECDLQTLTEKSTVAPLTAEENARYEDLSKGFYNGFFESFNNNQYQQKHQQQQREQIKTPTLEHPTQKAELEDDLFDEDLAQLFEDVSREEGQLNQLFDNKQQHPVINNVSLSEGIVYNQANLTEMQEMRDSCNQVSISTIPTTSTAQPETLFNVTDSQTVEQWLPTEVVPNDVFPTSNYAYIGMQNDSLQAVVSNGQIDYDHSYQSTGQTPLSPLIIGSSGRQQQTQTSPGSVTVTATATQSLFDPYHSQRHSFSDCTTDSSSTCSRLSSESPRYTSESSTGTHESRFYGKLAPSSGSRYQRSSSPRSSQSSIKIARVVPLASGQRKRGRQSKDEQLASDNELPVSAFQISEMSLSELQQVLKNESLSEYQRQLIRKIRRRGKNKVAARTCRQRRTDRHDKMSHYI
# [15] = molecular target: T7, Rac GTPase-activating protein 1 (Homo sapiens, UniProt Q9H0H5); assay: MgcRacGAP GTPase-activating activity inhibitors, confirmation, biochemical, ADP Hunter fluorescence, primary and confirmatory (AID 624330); format: functional
# T7 sequence (Q9H0H5 whole entry): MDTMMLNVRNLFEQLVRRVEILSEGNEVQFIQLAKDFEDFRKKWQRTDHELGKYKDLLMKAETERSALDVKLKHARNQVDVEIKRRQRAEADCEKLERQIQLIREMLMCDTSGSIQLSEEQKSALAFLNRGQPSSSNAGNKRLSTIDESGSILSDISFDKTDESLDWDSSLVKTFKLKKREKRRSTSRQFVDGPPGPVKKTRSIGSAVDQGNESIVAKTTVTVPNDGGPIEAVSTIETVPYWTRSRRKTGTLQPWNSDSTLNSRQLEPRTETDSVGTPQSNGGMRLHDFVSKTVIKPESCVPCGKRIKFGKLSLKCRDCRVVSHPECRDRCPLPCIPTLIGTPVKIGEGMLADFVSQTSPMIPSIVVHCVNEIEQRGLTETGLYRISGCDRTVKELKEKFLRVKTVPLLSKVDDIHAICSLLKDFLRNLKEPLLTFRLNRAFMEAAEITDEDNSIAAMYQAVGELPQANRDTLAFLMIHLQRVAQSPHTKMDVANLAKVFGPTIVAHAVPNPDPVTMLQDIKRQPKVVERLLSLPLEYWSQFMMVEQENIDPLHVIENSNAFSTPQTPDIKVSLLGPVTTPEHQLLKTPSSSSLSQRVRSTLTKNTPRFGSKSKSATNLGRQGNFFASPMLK
# HEK293 [16] = assay: cells; details: Homo sapiens
# HEK293 [17] = assay: cells; details: Homo sapiens; remark: listed apart in the source
# [18] = molecular target: T8, Tyrosine-protein phosphatase non-receptor type 7 (Homo sapiens, UniProt P35236); assay: redox-dependent HePTP inhibition, mechanism study, biochemical, fluorescence (AID 2068); format: functional
# T8 sequence (P35236 whole entry): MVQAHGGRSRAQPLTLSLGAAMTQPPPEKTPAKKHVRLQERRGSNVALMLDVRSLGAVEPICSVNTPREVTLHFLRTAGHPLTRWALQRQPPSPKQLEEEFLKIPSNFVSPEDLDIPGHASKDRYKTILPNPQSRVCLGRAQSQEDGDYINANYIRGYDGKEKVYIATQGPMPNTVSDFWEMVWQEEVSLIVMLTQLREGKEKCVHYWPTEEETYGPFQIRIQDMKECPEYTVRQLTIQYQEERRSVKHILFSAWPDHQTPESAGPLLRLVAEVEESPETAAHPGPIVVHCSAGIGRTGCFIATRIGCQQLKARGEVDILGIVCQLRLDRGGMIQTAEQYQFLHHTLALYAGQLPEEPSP
# Sequence of DNA dC->dU-editing enzyme APOBEC-3A (P31941 whole entry): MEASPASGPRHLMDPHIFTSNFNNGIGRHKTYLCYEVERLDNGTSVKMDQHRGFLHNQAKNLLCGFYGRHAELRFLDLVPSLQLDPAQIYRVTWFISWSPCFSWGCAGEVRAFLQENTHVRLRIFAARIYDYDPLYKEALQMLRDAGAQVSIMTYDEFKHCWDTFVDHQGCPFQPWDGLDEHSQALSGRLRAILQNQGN
# Sequence of DNA dC->dU-editing enzyme APOBEC-3G (Q9HC16 whole entry): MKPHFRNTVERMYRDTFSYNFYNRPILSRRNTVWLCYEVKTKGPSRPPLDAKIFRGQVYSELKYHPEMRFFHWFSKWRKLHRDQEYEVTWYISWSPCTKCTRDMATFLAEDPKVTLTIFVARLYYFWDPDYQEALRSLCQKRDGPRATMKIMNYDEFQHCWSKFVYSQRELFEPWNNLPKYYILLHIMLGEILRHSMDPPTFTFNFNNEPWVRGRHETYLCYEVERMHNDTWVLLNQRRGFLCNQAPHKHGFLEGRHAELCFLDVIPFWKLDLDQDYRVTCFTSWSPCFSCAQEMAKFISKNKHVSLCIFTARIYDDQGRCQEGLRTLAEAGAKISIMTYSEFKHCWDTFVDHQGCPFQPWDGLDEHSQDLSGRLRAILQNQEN
# Sequence of Glucose-6-phosphate 1-dehydrogenase (P11413 whole entry): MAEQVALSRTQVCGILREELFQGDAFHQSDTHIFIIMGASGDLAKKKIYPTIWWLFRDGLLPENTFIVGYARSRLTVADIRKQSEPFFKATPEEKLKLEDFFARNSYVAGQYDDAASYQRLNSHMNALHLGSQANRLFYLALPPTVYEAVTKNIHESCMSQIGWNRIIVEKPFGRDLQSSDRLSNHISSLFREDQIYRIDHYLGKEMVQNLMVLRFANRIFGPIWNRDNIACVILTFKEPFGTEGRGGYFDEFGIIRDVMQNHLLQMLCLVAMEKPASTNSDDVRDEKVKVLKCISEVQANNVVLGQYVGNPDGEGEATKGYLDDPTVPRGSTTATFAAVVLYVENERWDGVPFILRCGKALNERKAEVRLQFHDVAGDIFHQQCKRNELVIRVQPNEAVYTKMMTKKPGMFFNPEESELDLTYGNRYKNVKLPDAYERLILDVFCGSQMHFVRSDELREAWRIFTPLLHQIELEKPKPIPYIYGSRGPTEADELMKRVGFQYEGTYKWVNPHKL
# T2 sequence (P08684 whole entry): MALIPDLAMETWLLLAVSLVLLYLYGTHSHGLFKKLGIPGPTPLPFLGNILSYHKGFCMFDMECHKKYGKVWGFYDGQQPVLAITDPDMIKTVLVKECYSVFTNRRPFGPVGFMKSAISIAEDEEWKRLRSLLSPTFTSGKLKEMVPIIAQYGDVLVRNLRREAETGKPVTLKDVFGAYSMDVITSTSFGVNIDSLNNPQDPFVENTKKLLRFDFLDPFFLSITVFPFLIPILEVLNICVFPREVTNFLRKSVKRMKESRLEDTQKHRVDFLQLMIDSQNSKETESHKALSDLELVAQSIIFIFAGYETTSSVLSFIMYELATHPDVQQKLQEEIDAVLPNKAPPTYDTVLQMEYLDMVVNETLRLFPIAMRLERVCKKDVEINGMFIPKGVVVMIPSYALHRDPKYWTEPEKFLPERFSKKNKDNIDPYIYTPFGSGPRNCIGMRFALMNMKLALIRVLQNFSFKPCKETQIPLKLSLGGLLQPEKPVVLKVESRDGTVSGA
# T5 sequence (Q8VNN2 whole entry): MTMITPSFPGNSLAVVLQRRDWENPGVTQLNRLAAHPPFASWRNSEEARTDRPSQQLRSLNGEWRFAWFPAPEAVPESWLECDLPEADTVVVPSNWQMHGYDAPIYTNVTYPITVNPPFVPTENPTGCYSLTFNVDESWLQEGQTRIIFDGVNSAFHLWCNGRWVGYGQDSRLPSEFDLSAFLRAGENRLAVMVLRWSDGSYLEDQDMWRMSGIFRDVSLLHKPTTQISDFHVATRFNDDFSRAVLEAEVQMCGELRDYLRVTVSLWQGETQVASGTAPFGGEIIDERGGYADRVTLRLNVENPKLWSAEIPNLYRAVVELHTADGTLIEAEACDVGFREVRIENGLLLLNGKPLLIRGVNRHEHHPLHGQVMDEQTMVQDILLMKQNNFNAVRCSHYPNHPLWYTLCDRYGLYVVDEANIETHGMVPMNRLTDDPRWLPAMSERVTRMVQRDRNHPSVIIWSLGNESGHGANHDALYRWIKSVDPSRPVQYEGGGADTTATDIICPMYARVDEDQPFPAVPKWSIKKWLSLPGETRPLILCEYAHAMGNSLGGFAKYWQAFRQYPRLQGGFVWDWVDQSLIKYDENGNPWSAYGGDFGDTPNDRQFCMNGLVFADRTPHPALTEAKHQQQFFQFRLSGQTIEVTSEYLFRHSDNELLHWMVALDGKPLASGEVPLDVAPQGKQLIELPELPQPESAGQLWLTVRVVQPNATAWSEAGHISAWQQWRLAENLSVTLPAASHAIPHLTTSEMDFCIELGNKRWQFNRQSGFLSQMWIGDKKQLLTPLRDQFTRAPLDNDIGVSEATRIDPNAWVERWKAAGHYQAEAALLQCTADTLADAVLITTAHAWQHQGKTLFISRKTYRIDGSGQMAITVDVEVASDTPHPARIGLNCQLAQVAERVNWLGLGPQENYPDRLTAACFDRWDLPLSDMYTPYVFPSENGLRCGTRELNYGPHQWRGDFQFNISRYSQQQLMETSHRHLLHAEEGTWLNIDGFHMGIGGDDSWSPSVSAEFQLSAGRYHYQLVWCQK
# Sequence of Voltage-gated inwardly rectifying potassium channel KCNH2 (Q12809 whole entry): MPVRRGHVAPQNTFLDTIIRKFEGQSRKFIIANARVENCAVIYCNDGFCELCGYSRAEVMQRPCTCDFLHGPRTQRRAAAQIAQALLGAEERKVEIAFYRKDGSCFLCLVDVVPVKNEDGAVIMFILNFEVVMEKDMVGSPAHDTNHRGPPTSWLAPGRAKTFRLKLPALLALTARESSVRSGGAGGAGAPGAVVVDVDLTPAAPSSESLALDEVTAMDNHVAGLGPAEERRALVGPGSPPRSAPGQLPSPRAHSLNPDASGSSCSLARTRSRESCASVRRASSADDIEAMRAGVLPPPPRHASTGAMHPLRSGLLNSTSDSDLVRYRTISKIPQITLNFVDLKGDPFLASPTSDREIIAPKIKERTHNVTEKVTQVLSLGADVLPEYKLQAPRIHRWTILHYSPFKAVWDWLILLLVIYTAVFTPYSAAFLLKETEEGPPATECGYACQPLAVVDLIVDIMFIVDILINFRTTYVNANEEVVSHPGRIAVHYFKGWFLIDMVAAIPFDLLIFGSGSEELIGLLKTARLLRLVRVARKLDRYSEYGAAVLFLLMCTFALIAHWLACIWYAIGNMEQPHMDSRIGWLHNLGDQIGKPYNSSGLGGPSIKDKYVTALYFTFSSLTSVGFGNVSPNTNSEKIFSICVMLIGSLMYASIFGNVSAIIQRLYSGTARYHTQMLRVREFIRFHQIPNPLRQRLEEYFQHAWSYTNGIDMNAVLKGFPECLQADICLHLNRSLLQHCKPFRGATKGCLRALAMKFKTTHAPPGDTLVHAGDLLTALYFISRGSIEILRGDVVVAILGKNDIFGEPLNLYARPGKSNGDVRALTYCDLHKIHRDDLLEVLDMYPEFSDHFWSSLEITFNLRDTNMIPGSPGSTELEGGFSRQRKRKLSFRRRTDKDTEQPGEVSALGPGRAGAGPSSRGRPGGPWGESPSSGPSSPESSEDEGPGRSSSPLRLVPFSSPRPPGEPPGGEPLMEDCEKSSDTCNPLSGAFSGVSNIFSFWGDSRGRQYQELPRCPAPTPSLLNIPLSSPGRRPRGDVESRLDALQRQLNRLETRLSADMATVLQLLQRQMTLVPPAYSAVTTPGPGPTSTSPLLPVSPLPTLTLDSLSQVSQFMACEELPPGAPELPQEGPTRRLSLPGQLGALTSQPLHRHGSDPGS
# Sequence of SUMO-activating enzyme (Q9UBE0 whole entry): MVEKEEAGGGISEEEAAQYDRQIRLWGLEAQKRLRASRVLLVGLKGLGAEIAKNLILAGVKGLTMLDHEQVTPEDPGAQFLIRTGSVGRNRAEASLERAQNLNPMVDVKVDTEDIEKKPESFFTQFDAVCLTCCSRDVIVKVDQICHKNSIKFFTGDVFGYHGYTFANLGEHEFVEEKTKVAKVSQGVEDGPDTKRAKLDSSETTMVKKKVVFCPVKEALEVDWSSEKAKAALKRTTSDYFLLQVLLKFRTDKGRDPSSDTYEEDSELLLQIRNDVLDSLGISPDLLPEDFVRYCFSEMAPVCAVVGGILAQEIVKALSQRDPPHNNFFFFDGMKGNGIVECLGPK
# Sequence of SUMO-activating enzyme (Q9UBT2 whole entry): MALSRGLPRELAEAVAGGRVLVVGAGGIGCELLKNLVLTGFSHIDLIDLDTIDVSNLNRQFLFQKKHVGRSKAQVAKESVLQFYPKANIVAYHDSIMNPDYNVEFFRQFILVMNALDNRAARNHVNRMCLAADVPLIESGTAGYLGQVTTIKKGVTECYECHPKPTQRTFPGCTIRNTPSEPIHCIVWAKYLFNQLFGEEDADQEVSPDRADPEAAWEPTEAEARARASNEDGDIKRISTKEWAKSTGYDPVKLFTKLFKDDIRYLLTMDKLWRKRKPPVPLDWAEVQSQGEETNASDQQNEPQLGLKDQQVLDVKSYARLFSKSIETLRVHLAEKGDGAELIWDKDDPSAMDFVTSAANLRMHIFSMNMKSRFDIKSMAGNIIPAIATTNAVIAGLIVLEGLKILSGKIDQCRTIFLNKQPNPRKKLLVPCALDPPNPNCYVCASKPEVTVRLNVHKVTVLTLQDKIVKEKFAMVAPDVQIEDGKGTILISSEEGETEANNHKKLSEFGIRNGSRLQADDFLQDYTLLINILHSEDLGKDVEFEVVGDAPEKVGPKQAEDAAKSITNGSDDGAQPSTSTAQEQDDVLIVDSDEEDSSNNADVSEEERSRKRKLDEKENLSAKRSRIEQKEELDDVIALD
compound,measurement,setting,value
Cc1cc(C)c(C)c(S(=O)(=O)N2CCC(C(=O)OCC(=O)N3c4ccccc4NC(=O)C3(C)C)CC2)c1C,IC50,Bcl-2-like protein 10,45.3 µM (active)
O=C(c1cccc(F)c1)N1CCC2(CCN(Cc3cc(C(F)(F)F)cc(C(F)(F)F)c3)CC2)CC1,AC50,Cytochrome P450 3A4 [1],inconclusive
Cc1ccc(N2C(=O)NC(=O)/C(=C/C=C/Nc3ccccc3)C2=O)cc1,EC50,"Troponin, cardiac muscle",5.48 µM (active)
Cc1cc(=O)oc2c(CN(CC(C)C)CC(C)C)c(O)ccc12,IC50,Aminopeptidase N,74 µM (active)
CCOC(=O)c1cnc2ccc(C)cc2c1Sc1ccccc1C(=O)OC,EC50,[2],4.01 µM (active)
same,AC50,Cytochrome P450 3A4 [3],39.8 µM (inconclusive)
same,IC50,[4],> 80 µM (inactive)
same,EC50,[5],> 60 µM (not active)
O=[N+]([O-])c1ccccc1-c1ccccc1,AC50,[6],39.8 µM (inconclusive)
CCOC(=O)c1cnc(-c2ccccc2)nc1Oc1ccccc1,AC50,Cytochrome P450 3A4 [1],inconclusive
CCc1cc(-c2[nH]nc(C)c2-c2ccccc2Cl)c(O)cc1OC,AC50,[7],4.42 µM (active)
same,EC50,[8],> 38 µM (not active)
same,EC50,[9],6.06 µM (inconclusive)
same,IC50,[4],> 80 µM (inactive)
O=C(c1ccc2c(c1)nc(S)n1c3ccccc3nc21)N1CCN(c2ncccn2)CC1,IC50,SUMO-activating enzyme,50.6 µM (active)
N#Cc1ccc(CN2CC3(CCN(C(=O)c4cccc(F)c4)CC3)C2)cc1,AC50,Cytochrome P450 3A4 [1],inconclusive
C[N+]1(CC(COCc2ccccc2)OC(=O)Cc2ccccc2)CCOCC1 (configuration not stated),IC50,[10],2.41 µM (active)
same,IC50,[11],2.42 µM (active)
CCN(CC)c1nc(C)c(C(S)=Nc2cc([N+](=O)[O-])ccc2Cl)s1,IC50,[12],> 40 µM (not active)
same,EC50,Beta-galactosidase [13],24.8 µM (active)
O=C1CC(Sc2nnnn2C2CCCCC2)C(=O)N1c1ccccc1 (configuration not stated),IC50,Beta-galactosidase [14],> 66.6 µM (inactive)
Nc1ccc(N2CCN(C(=O)c3cccs3)CC2)cc1,IC50,Bcl-2-like protein 10,> 100 µM (inactive)
same,IC50,Protein skinhead-1,> 100 µM (inactive)
same,IC50,[15],19 µM (active)
CC1(C#CC[N+]2(C)CCCCC2)CCC2C(O1)c1ccccc1OC2(C)C (configuration not stated),IC50,[10],3.03 µM (active)
same,IC50,[11],5.07 µM (active)
COc1cc2c(cc1OC)-c1nnc(-c3cccs3)n1C(C)(C)C2,EC50,HEK293 [16],> 59.6 µM (inactive)
same,EC50,HEK293 [17],> 59.6 µM (inactive)
CCCCNC(=O)CSc1nc2ccc(NC(=O)CSc3nnc(N)s3)cc2s1,IC50,[10],3.61 µM (active)
same,IC50,[11],6.28 µM (active)
COc1ccccc1NS(=O)(=O)c1cc(NC(=O)c2cc3ccccc3oc2=O)ccc1C,EC50,"Troponin, cardiac muscle",> 71.5 µM (inactive)
O=C(C1=C(O)C(=O)N(CCN2CCOCC2)C1c1ccc([N+](=O)[O-])cc1)c1cccs1 (configuration not stated),EC50,"Troponin, cardiac muscle",> 71.4 µM (inactive)
COc1cccc(NC(=O)Nc2ccc3nc(-c4ccco4)c(-c4ccco4)nc3c2)c1,IC50,[18],1.09 µM (active)
Cc1nn(-c2ccccc2)c(Cl)c1/C=N/Nc1nc2ccccc2n1C,EC50,[2],1.94 µM (active)
same,IC50,[4],> 80 µM (inactive)
same,EC50,[5],> 60 µM (not active)
COc1ccc(Br)cc1/C=N/NC(=O)CNC(=O)c1cccnc1,IC50,Aminopeptidase N,27.2 µM (active)
